A word on the IC50: it is the concentration that gives 50% inhibition. Usually inhibition stands for the relative decrease from the control value, in per cent.

This note sets out measurements from ChEMBL document CHEMBL5214883, “Comprehensive review for anticancer hybridized multitargeting HDAC inhibitors” (Eur J Med Chem, 2021).

The nature of data set [1]: Cytotoxicity against human WM983B cells. It counts as functional, cell-based.
Data set [2] concerns the target Histone deacetylase 11 (Homo sapiens, UniProt Q96DB2). The data set is described as follows: Inhibition of HDAC11 (unknown origin).
Data set [3] deals with Histone deacetylase 3 (Homo sapiens, UniProt O15379). The data set is described as follows: Inhibition of HDAC3 (unknown origin).
Chain of Histone deacetylase 3 (O15379 whole entry): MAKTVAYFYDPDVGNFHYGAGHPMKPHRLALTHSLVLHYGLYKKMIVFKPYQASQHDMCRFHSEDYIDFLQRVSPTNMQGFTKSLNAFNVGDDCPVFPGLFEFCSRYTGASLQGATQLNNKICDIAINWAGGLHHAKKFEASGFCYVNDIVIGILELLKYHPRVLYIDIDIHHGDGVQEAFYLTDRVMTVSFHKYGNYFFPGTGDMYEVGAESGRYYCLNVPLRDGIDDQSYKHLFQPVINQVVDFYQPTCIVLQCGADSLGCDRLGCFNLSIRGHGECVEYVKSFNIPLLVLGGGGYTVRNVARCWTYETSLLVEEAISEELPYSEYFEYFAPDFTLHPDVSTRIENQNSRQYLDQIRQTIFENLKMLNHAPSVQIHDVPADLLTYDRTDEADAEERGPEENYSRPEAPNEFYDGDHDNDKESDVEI
Data set [4] deals with Histone deacetylase 8 (Homo sapiens, UniProt Q9BY41). The data set is described as follows: Inhibition of HDAC8 (unknown origin).
Data set [5] addresses T1, Protein deacetylase HDAC6 (Homo sapiens, UniProt Q9UBN7).
T1 sequence (Q9UBN7 whole entry): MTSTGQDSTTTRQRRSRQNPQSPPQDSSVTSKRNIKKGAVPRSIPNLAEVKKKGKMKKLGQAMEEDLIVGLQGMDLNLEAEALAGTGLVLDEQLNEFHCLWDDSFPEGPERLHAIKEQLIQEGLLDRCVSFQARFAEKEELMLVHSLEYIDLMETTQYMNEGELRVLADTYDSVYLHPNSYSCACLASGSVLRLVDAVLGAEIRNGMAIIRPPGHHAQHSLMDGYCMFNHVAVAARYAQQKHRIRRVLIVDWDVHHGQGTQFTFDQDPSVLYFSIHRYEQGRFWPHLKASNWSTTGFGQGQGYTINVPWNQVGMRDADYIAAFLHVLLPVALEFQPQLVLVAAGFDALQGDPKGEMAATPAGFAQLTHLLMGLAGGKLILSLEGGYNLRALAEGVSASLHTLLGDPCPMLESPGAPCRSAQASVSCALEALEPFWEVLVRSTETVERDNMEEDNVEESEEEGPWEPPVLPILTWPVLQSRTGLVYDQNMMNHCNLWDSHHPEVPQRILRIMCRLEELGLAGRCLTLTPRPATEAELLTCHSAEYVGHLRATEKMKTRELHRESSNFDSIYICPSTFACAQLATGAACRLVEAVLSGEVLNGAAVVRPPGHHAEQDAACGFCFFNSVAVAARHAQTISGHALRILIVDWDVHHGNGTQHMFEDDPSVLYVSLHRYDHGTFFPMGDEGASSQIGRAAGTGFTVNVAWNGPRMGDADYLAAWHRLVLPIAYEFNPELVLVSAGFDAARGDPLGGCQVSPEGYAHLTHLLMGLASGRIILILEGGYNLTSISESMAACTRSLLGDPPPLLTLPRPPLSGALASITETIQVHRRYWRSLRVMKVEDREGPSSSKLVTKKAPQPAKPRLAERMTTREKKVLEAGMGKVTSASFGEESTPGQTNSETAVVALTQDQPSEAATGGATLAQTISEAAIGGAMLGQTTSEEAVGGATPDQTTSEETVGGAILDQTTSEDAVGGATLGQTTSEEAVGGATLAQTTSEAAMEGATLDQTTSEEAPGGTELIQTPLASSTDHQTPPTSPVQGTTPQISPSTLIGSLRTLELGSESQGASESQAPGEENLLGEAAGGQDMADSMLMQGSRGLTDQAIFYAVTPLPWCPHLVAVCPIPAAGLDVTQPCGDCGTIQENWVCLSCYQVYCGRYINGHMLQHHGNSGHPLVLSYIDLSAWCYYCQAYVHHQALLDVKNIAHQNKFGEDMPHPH
The data set is described as follows: Inhibition of HDAC6 (unknown origin).

The test system of data set [6] is HeLa. The data set is described as follows: Antiproliferative activity against human HeLa cells incubated for 72 hrs by CCK-8 assay. It counts as functional, cell-based. (In general: Tetrazolium dyes change colour on reduction, which living cells bring about.)
Data set [7] relates to MCF7. Description: Antiproliferative activity against human MCF7 cells incubated for 72 hrs by CCK-8 assay. As to conditions: MCF7, 72 h. It counts as functional, cell-based.
The target of data set [8] is Tubulin. Description: Inhibition of tubulin polymerization (unknown origin) incubated for 15 mins in presence of GTP by fluorescence-based tubulin polymerization assay kit. It counts as protein-complex assay, Homo sapiens.
Data set [9] has as its system HepG2. Description: Antiproliferative activity against human HepG2 cells incubated for 72 hrs by CCK-8 assay. It counts as functional, cell-based. Conditions: HepG2, 72 h.
Data set [10] has as its system A549. The data set is described as follows: Antiproliferative activity against human A549 cells incubated for 72 hrs by CCK-8 assay. It counts as functional, cell-based. As to conditions: A549, 72 h.
Data set [11] relates to PC-3. The data set is described as follows: Antiproliferative activity against human PC-3 cells incubated for 72 hrs by CCK-8 assay. It counts as functional, cell-based. Conditions: PC-3, 72 h.
The target in data set [12] is T2, Epidermal growth factor receptor (Homo sapiens, UniProt P00533). Description: Inhibition of EGFR wildtype (unknown origin) incubated for 40 mins in presence of ATP.
T2 sequence (P00533 whole entry): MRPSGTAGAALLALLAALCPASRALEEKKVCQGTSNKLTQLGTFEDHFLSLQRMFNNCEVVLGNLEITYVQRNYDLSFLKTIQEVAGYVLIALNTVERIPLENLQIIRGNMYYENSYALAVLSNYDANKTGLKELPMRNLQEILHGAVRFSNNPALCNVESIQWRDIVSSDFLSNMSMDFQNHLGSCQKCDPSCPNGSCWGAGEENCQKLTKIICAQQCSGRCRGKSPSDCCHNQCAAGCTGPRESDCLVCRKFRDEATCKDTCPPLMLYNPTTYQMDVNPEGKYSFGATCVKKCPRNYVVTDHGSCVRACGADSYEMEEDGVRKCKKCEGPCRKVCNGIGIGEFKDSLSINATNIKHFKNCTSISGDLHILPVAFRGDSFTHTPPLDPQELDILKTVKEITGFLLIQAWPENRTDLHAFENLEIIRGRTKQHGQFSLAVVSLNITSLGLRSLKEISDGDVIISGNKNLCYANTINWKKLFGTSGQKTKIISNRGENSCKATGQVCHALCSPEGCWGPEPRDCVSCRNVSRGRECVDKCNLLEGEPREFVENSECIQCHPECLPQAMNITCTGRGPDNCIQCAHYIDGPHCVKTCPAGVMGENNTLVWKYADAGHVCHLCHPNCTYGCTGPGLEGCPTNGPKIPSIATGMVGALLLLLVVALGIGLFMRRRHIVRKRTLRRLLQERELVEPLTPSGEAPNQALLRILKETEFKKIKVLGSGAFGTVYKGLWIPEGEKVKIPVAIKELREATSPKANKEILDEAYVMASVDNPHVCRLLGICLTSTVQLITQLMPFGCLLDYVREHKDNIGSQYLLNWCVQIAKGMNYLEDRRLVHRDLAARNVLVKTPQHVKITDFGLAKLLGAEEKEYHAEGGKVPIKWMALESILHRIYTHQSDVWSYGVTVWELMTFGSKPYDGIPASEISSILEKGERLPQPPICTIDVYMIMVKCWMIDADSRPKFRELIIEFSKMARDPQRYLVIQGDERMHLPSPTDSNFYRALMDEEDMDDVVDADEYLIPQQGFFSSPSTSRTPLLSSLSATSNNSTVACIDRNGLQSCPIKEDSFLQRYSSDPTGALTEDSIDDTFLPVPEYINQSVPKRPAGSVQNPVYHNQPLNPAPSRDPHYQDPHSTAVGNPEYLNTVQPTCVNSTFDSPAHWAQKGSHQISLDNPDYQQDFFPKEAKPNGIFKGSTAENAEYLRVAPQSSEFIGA
In data set [13] the test system is Epidermal growth factor receptor (Homo sapiens), P00533 [UNDEFINED MUTATION]. The data set is described as follows: Inhibition of EGFR T790M (unknown origin) at 1 uM incubated for 40 mins in presence of ATP relative to control.
Data set [14] addresses Epidermal growth factor receptor (Homo sapiens, UniProt P00533, T790M). Description: Inhibition of EGFR T790M (unknown origin) incubated for 40 mins in presence of ATP.
Data set [15] deals with T3, Histone deacetylase 1 (Homo sapiens, UniProt Q13547). The data set is described as follows: Inhibition of HDAC1 in human HeLa cell nuclear extract using Bos-Lys(acetyl)-AMC as substrate preincubated for 5 mins followed by substrate addition incubated for 30 mins. It counts as cell-free.
T3 sequence (Q13547 whole entry): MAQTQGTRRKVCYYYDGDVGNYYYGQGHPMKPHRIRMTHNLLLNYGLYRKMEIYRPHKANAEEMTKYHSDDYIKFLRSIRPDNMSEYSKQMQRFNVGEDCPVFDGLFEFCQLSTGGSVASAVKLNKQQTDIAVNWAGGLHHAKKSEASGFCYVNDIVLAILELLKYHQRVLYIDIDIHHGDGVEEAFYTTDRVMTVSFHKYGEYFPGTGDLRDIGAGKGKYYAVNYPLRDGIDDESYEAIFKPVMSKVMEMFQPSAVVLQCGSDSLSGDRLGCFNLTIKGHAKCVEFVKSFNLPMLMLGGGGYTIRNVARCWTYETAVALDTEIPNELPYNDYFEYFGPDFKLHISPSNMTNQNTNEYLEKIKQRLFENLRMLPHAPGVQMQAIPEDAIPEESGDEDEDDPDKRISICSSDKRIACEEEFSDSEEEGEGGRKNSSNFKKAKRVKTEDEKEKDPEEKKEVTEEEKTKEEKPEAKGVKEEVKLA
Data set [16] is described as follows: Inhibition of PDGFR (unknown origin). Also on record: species or system Homo sapiens.
The target of data set [17] is Cyclin-dependent kinase 4 (Homo sapiens, UniProt P11802). The data set is described as follows: Inhibition of Cdk4 (unknown origin).
Data set [18] is described as follows: Antiproliferative activity against non-small cell lung cancer cell line (unknown origin).
Data set [19] in a line: Antiproliferative activity against breast cancer cell line (unknown origin).
In data set [20] the target is T3, Histone deacetylase 1. Description: Inhibition of HDAC1 (unknown origin).
Data set [21] addresses Polyamine deacetylase HDAC10 (Homo sapiens, UniProt Q969S8). Description: Inhibition of HDAC10 (unknown origin).
Data set [22] has as its system CAPAN-1. Description: Antitumor activity against human CAPAN-1 cells xenografted in mouse assessed tumor growth inhibition at 20 mg/kg, ip, bid relative to control. It counts as functional. Conditions: read-out: TGI. For orientation: Xenograft models place foreign cells or tissue in a host animal.
The target of data set [23] is Receptor tyrosine-protein kinase erbB-2 (Homo sapiens, UniProt P04626). The data set is described as follows: Inhibition of HER2 (unknown origin).
Chain of Receptor tyrosine-protein kinase erbB-2 (P04626 whole entry): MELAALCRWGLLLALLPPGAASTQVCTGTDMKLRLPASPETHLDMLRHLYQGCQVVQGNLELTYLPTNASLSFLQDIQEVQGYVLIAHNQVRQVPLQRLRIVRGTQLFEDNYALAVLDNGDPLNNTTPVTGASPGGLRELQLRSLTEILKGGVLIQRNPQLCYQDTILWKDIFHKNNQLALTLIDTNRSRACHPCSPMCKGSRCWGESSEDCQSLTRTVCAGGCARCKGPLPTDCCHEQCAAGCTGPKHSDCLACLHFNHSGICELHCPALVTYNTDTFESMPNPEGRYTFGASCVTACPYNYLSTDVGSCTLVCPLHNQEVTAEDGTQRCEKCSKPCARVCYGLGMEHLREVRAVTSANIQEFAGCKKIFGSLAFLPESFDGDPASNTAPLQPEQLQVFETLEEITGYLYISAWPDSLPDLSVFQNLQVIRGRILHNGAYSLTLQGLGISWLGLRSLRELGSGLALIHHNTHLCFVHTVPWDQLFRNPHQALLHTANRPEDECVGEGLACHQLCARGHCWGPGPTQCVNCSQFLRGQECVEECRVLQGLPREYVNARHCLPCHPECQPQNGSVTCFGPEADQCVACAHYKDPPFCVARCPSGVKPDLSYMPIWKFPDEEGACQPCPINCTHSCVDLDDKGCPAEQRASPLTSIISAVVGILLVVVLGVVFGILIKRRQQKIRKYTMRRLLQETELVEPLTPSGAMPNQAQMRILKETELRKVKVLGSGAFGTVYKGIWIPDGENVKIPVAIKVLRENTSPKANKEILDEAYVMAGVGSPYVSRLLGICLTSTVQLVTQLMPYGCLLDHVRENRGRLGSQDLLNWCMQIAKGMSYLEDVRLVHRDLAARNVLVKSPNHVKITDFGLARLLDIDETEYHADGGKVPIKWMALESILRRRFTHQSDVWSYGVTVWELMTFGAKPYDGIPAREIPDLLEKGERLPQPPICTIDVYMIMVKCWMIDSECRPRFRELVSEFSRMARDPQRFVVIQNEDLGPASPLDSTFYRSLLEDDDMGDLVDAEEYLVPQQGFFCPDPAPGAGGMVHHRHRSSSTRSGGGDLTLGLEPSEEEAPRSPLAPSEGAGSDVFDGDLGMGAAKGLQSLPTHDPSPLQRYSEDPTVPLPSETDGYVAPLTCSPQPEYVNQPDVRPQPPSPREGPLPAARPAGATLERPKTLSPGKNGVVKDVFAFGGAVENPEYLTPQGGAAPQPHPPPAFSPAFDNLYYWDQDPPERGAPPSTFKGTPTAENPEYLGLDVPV
In data set [24] the target is T2, Epidermal growth factor receptor. Description: Inhibition of EGFR (unknown origin).
For data set [25], the target named is T3, Histone deacetylase 1. Description: Inhibition of human recombinant HDAC1 using Ac-Lys-Tyr-Lys (epsilon-acetyl)-AMC as substrate incubated for 24 hrs by EnVision multilabel plate reader method.
The test system of data set [26] is L1210. The data set is described as follows: Cytotoxicity against mouse L1210 cells by trypan blue staining method. It counts as functional. Conditions: read-out: LC50 (the source's name).
Data set [27] relates to MCF7. The data set is described as follows: Cytotoxicity against human MCF7 cells by trypan blue staining method. It counts as functional, cell-based.
Data set [28] relates to HEK-293T. Description: Cytotoxicity against human 293T cells by trypan blue staining method. It counts as functional. Conditions: read-out: LC50 (the source's name).
The test system of data set [29] is HaCaT. Description: Cytotoxicity against human HaCat cells by trypan blue staining method. It counts as functional. Conditions: read-out: LC50 (the source's name).
Data set [30] has as its system Jurkat. The data set is described as follows: Cytotoxicity against human Jurkat cells by trypan blue staining method. It counts as functional. Conditions: read-out: LC50 (the source's name).
Data set [31] concerns the target T3, Histone deacetylase 1. Description: Inhibition of HDAC1 (unknown origin) relative to control. As to conditions: concentration not given here.
For data set [32], the target named is Histone deacetylase 2 (Homo sapiens, UniProt Q92769). Description: Inhibition of human HDAC2 incubated for 30 mins by SpectraMax M2 microplate reader analysis.
Data set [33] has as its system MDA-MB-231. Description: Cytotoxicity against human MDA-MB-231 cells. It counts as functional, cell-based.
For data set [34], the system named is RWPE-1. The data set is described as follows: Cytotoxicity against human RWPE-1 cells. It counts as functional, cell-based.
Data set [35] can be described thus: Cytotoxicity against African green monkey Vero cells. As to conditions: African green monkey (Chlorocebus sabaeus).
In data set [36] the test system is PC-3. Description: Cytotoxicity against human PC-3 cells. It counts as functional, cell-based.
In data set [37] the test system is MCF7. Description: Cytotoxicity against human MCF7 cells. It counts as functional, cell-based.
In data set [38] the target is Vitamin D3 receptor (Homo sapiens, UniProt P11473). The data set is described as follows: Agonist activity at Vitamin D receptor (unknown origin) by fluorescence polarization assay. (Polarisation of emitted light reports the rotation of a fluorescent probe.)
Chain of Vitamin D3 receptor (P11473 whole entry): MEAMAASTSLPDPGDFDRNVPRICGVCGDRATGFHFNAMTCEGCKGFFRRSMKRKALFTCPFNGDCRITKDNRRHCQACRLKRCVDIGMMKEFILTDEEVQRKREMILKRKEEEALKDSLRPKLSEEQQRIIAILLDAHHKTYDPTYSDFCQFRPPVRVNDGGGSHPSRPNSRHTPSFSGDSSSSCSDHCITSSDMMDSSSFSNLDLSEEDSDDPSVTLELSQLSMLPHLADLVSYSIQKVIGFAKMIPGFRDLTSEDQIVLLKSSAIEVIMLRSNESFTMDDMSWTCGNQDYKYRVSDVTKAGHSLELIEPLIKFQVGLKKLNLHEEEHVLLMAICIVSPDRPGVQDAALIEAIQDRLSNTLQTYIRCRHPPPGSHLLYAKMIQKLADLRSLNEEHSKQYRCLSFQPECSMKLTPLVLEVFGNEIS

Chain of Histone deacetylase 11 (Q96DB2 whole entry): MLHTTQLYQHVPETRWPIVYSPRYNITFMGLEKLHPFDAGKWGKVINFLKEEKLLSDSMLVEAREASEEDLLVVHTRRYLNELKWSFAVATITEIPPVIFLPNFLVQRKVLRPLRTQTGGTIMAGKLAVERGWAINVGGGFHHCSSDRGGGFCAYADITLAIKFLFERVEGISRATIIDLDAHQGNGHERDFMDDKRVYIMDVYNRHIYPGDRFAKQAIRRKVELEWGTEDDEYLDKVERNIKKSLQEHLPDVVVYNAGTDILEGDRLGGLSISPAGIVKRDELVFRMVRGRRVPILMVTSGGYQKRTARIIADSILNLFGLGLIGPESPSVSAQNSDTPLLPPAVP
Chain of Polyamine deacetylase HDAC10 (Q969S8 whole entry): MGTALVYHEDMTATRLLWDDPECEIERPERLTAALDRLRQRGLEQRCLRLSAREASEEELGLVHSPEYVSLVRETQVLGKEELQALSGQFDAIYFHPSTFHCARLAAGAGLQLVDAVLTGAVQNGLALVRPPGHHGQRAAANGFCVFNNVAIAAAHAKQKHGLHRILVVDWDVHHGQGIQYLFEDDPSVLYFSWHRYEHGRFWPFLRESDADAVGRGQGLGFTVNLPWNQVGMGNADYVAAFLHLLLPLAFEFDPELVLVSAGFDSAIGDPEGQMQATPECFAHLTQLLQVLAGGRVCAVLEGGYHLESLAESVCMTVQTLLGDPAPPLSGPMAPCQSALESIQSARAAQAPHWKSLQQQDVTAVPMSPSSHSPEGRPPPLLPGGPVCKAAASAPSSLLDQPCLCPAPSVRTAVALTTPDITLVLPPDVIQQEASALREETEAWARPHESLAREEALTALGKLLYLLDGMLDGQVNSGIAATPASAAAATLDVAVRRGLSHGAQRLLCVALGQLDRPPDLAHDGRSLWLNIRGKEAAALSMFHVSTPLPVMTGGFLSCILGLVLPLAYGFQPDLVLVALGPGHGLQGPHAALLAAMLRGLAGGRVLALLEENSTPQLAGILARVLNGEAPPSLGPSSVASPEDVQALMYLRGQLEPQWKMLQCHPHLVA

As to `Nc1ccccc1NC(=O)c1ccc(CCCC(=O)Nc2ccc(C3CC3N)cc2)cc1` (stereo not drawn), in [1], it took 0.2 µM to reach half-maximal inhibition (IC50).
For `O=C(CCCCCOc1no[n+]([O-])c1S(=O)(=O)c1ccccc1)NO`, the IC50 in [2] turned out to be 0.608 µM; in data set [3], 0.532 µM; in [4] it was 0.343 µM; in [5], 7.4 µM.
For the compound `C[C@H]1COc2c(N3CCN(C)CC3)c(F)cc3c(=O)c(C(=O)O)cn1c23` [LEVOFLOXACIN], the IC50 is more than 70 µM in data set [6]; more than 70 µM in [7]; 11.3 µM in data set [8]; more than 70 µM in data set [9]; more than 70 µM in [10]; more than 70 µM in data set [11].
For `Cn1cc(-c2ccnc(Nc3ccc(NC(=O)CCCCCCC(=O)NO)cc3)n2)c2ccccc21`, the concentration for half-maximal inhibition (IC50) in [12] was found to be 3.2 µM; in data set [14], 1.2 µM; in [15], 0.105 µM. The inhibition in data set [13] worked out at 44%.
For `Cc1ccc(NCc2ccc(C(=O)Nc3ccccc3N)cc2)cc1Nc1nccc(-c2cccnc2)n1`, the values for the concentration for half-maximal inhibition (IC50) in data set [16] and in data set [5] were 2.7 µM and not below 32 µM, respectively.
Regarding `Cc1nc2c(F)cc(-c3nc(Nc4ccc(CNC(=O)CC(=O)NO)cc4)ncc3F)cc2n1C(C)C`, the half-inhibitory concentration (IC50) is 0.0012 µM in data set [17]; 0.0183 µM in [18]; 0.0183 µM in data set [19]; 0.056 µM in data set [3]; 0.026 µM in data set [20]; 0.073 µM in [21]. The compound also returned an IC50 in data set [5] of 0.0059 µM.
On to `Cc1sc2c(c1C)C(c1ccc(Cl)cc1)=N[C@@H](CC(=O)Nc1ccc(C(=O)NO)cc1)c1nnc(C)n1-2`, for which the inhibition in vivo at 20 mg/kg in data set [22] was 87.7%.
`C#Cc1cccc(Nc2ncnc3ccc(S(=O)(=O)n4ccc(/C=C/C(=O)Nc5ccccc5N)c4)cc23)c1`: the 50% inhibitory concentration (IC50) in data set [20] was determined as 0.041 µM; in data set [23], 0.066 µM; in data set [24] it was 0.078 µM.
For `COc1cc2ncnc(Nc3cccc(/C=C/C(=O)NO)c3)c2cc1OCCCN1CCOCC1`, in [25], the IC50 worked out at 0.15 µM.
As for `O=C(CCn1cc(CCn2nnc3c(Br)c(Br)c(Br)c(Br)c32)nn1)NO`, the CC50 in data set [26], in data set [28], in data set [29] and in [30] was 13.5 µM in each case. For the same compound, the IC50 in data set [27] worked out at 17.3 µM. Besides, in data set [31], the inhibition turned out to be 90%.
Consider `C[C@H]1COc2c(N3CCN(C)CC3)c(F)cc3c(=O)c(C(=O)NCc4cn(CCCCCC(=O)NO)nn4)cn1c23`, for which the results for the half-maximal inhibitory concentration (IC50) in data set [8] and in [32] were 2.02 µM and 0.85 µM, respectively.
Take `CC1(C)C(=O)N(c2ccc(C#N)c(C(F)(F)F)c2)C(=O)N1CCCCCCc1cn(CCCCCCC(=O)NO)nn1`: the IC50 is more than 20 µM in data set [33]; 12.1 µM in [34]; more than 20 µM in data set [35]; 15.7 µM in data set [36]; 14.6 µM in data set [37].
Compound `CC(/C=C/C(=O)NO)=C\[C@@H](C)C(=O)c1ccc(N(C)C)cc1` [TRICHOSTATIN] yielded a concentration for half-maximal inhibition (IC50) in [38] of 0.087 µM.
